Measured values published in patent US20240151711A1, “ADJUVANT FOR VACCINE DEVELOPMENT” (priority 2021, published 2024).

Legend:
[1] = test system: BMDCs; assay: Stimulation of cytokine production by mRNA vaccine in BMDCs (ELISA); format: cell-based, mouse; conditions: 24 hours; FIG. 20
Experimental: GM-CSF/IL4-induced BMDCs were seeded into 24-well plates at a seeding density of 5×10^5 cells/well, and treated with PBS control, the TLR7 agonist imiquimod, mRNA-free vehicle control, mRNA core control, or mRNA vaccine (MVP) for 24 hours. Cell growth media were collected and IFN-b and TNF-α levels were measured with ELISA assay (FIG. 20). To determine pathways that play important roles on stimulation of cytokine production, BMDCs were induced from bone marrow cells collected from wild-type mice, Sting knockout mice, and Tlr7 knockout mice. Cells were treated with PBS control, mRNA-free vehicle control, mRNA core control, or mRNA vaccine (MVP) for 24 hours, and cell growth media were collected 24 hours later for measurement of cytokine levels.

[2] = test system: BMDCs derived from wild-type mice or Sting knockout mice; assay: Identification of key adjuvant component in mRNA vaccine (EDOPC replaced with DOTAP); format: cell-based, mouse; conditions: Vehicle or MVP prepared with EDOPC or DOTAP; FIG. 22
Text: In order to determine the role of the charged lipid (i.e., EDOPC), positively charged 1,2-dioleoyl-3-trimethylammonium-propane (DOTAP) was used to replace EDOPC to prepare vehicle and mRNA vaccine. The resulting vehicle (Vehicle with DOTAP) and mRNA vaccine (MVP with DOTAP) were applied to compare with the parental vehicle (Vehicle with EDOPC) and mRNA vaccine (MVP with EDOPC) on stimulation of cytokine expression after BMDC treatment.

[3] = test system: tumor; conditions: intra-tumoral administration; cited from earlier work

CC(C)Cn1cnc2c(N)nc3ccccc3c21 [imiquimod]
IFN-β level in growth media [1]: same as potent in stimulating IFN-β expression
TNF-α level in growth media [1]: same as potent in stimulating TNF-α expression

CCCCCCCC/C=C\CCCCCCCC(=O)OC[C@@H](COP(=O)(OCC)OCC[N+](C)(C)C)OC(=O)CCCCCCC/C=C\CCCCCCCC (stereo partly shown) [EDOPC, 1,2-dioleoyl-sn-glycero-3-ethylphosphocholine]
IFN-β level in growth media [2]: essential for STING-dependent stimulation

Cc1ccc2c(=O)c3cccc(CC(=O)O)c3oc2c1C [DMXAA, 5,6-dimethylxanthenone-4-acetic acid]
antitumor immunity [3]: strong antitumor immunity
